From publication PMC5438973 (Frontiers in Psychiatry, 2017)

Key:
M1 = target: T1, M1 (Homo sapiens, UniProt P11229); assay: CEREP broad receptor screening panel; assay type: binding; details: CPD 1 10 µM (table title), duplicate
T1 construct: CEREP
Procedure: (§1) Additional selectivity assessment of CPD 1 was performed at CEREP. Methods are available for the multiple assays utilized at http://www.cerep.fr/cerep/users/pages/catalog/assay/catalog.asp. The specific ligand binding to the receptors is defined as the difference between the total binding and the non-specific binding determined in the presence of an excess of unlabeled ligand.

α2 = assay: CEREP broad receptor screening panel; assay type: binding; details: CPD 1 10 mM (table title), duplicate
Procedure: as §1

D1 = target: T2, D1 (Homo sapiens, UniProt P21728); assay: CEREP broad receptor screening panel; assay type: binding; details: CPD 1 10 µM (table title), duplicate
T2 construct: CEREP
T2 sequence (P21728 whole entry): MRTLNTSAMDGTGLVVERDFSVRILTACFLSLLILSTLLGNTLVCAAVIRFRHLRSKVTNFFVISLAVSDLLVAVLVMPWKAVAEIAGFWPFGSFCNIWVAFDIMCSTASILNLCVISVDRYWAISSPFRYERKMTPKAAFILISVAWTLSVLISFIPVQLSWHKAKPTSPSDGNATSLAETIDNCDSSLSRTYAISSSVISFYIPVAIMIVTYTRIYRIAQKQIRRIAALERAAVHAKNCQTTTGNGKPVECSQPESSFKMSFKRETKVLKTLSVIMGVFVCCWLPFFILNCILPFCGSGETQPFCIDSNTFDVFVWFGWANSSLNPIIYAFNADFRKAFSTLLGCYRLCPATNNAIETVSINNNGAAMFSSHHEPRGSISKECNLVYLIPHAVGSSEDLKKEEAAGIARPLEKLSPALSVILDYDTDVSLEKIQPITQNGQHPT
Procedure: as §1

D2s = target: T3, D2s (Homo sapiens, UniProt P14416); assay: CEREP broad receptor screening panel; assay type: binding; details: CPD 1 10 µM (table title), duplicate
T3 construct: CEREP
T3 sequence (P14416 1-414 isoform P14416-2): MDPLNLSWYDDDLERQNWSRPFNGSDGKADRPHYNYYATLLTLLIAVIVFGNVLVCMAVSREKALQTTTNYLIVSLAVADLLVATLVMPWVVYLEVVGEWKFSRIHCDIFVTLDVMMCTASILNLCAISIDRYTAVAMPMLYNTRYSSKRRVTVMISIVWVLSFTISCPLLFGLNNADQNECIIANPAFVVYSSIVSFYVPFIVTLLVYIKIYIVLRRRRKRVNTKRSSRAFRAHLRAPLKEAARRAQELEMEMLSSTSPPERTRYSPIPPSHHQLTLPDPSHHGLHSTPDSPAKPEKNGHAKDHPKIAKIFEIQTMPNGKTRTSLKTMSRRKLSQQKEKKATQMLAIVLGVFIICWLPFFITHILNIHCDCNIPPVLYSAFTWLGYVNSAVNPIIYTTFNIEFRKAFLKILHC
Procedure: as §1

NE transporter = target: T4, NE transporter (Homo sapiens, UniProt P23975); assay: CEREP broad receptor screening panel; assay type: binding; details: CPD 1 10 µM (table title), duplicate
T4 construct: CEREP (contract screening)
T4 sequence (P23975 whole entry): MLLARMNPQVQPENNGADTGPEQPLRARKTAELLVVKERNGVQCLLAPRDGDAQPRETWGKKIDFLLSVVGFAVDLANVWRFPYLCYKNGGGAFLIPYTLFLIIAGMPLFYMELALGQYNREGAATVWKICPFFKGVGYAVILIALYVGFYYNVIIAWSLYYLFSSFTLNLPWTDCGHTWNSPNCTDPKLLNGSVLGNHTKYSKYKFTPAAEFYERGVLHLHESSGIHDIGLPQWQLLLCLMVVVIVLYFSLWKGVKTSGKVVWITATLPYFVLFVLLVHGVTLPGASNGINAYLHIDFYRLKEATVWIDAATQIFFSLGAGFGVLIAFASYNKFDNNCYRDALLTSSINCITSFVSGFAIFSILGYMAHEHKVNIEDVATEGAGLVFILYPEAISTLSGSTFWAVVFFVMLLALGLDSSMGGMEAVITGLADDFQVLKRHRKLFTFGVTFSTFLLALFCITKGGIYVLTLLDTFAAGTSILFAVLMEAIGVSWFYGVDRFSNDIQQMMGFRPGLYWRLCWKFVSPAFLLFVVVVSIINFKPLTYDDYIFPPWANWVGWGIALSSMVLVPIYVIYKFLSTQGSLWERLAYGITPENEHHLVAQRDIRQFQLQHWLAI
Procedure: as §1

σ = assay: CEREP broad receptor screening panel; assay type: binding; details: CPD 1 10 mM (table title), duplicate
Procedure: as §1

H1 = target: T5, H1 (Homo sapiens, UniProt P35367); assay: CEREP broad receptor screening panel; assay type: binding; details: CPD 1 10 µM (table title), duplicate
T5 construct: CEREP
T5 sequence (P35367 whole entry): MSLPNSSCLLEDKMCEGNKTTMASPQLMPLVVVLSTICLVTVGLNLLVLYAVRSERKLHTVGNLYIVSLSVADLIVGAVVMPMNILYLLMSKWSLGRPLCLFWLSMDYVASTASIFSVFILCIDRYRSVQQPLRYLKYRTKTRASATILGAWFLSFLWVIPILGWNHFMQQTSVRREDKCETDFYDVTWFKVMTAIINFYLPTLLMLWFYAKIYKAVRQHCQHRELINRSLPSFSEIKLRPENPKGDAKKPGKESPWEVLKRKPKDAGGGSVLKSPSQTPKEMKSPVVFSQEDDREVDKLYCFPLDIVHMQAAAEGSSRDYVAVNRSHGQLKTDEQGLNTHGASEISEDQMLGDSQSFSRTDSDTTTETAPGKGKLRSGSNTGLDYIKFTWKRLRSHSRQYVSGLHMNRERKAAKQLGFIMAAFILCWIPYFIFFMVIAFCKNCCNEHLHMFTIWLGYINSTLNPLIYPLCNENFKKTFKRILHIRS
Procedure: as §1

Na+ Channel = assay: CEREP broad receptor screening panel; assay type: binding; details: CPD 1 10 mM (table title), duplicate
Procedure: as §1

D4.4 = target: T6, D4.4 (Homo sapiens, UniProt P21917); assay: CEREP broad receptor screening panel; assay type: binding; details: CPD 1 10 µM (table title), duplicate
T6 construct: CEREP
T6 sequence (P21917 whole entry): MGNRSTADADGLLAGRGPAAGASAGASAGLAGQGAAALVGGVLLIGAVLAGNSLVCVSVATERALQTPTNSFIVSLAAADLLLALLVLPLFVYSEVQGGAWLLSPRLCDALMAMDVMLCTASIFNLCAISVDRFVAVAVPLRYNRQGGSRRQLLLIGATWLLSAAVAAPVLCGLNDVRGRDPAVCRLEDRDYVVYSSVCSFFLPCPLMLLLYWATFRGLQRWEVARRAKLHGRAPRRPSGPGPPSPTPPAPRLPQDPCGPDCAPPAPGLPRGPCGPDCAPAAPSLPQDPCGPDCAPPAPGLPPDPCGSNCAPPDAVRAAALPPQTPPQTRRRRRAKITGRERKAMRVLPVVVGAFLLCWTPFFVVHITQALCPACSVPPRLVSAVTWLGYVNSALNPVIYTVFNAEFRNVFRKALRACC
Procedure: as §1

Male, Wistar rats = assay: Deprivation-induced drinking; assay type: in vivo, rat; details: 18 h water deprivation, 5.6 mg/kg
Procedure: Male, Wistar rats (different from those rats used in the schedule-induced polydipsia studies) were used. They were 320 ± 15 g at the initiation of this study. Water was removed from their home cage for 18 h after which water bottles were presented to each rat in an individual housing cage in a quiet room for 60 min. The weight of the water bottle before and after the 60 min period was measured to the nearest 0.1 g. Six to eight rats were studied per dose. It is noted that this deprivation period is considered stressful. After the experiment, the animals were returned to their living cages with continuous access to food and water.

Male, NIH Swiss mice [1] = tested on: Male, NIH Swiss mice
h5-HT1B = target: T7, h5-HT1B (Homo sapiens, UniProt P28222); assay: Radioligand binding, human cloned h5-HT1B; details: agonist radioligand, read-out: Affinity, Mean
T7 construct: expressed in transfected cells
T7 sequence (P28222 whole entry): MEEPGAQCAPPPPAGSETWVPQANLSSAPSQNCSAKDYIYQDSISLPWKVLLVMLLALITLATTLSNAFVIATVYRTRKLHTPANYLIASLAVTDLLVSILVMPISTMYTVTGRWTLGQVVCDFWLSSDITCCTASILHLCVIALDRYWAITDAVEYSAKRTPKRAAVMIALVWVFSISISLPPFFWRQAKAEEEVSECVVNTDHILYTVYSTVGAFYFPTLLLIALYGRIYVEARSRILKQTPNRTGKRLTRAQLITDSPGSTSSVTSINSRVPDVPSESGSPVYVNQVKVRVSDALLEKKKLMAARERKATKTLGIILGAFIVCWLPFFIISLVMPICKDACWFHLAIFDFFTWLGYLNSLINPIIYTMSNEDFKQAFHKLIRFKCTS
Procedure: (§2) Binding affinities at the serotonin receptors were determined by standard radioligand-binding methods using human cloned receptors as reported in the literature ([14], [15]).

Male, NIH Swiss mice [2] = assay: Nestlet-shredding; details: 8/dose group
h5-HT1D = target: T8, h5-HT1D (Homo sapiens, UniProt P28221); assay: Radioligand binding, human cloned h5-HT1D; details: agonist radioligand, read-out: Affinity, Mean
T8 construct: expressed in transfected cells
T8 sequence (P28221 whole entry): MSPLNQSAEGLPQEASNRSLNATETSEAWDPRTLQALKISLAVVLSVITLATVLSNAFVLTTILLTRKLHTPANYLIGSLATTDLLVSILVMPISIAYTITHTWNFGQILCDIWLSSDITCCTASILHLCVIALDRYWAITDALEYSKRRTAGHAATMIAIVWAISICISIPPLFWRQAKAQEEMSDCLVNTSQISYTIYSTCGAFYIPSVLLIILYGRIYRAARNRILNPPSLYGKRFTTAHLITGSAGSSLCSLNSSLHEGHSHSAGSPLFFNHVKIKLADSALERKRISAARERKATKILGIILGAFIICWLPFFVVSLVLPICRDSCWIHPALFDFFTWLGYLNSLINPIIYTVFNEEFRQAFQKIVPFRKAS
Procedure: as §2

Male, NIH Swiss mice [3] = assay: Rotarod performance; assay type: in vivo, mouse; details: mice, 10 mg/kg
From the text: Mice were not pretrained on this task.

h5-HT2A = target: T9, h5-HT2A (Homo sapiens, UniProt P28223); assay: Radioligand binding, human cloned h5-HT2A
T9 construct: expressed in transfected cells; host or cells: AV12 cells
T9 sequence (P28223 whole entry): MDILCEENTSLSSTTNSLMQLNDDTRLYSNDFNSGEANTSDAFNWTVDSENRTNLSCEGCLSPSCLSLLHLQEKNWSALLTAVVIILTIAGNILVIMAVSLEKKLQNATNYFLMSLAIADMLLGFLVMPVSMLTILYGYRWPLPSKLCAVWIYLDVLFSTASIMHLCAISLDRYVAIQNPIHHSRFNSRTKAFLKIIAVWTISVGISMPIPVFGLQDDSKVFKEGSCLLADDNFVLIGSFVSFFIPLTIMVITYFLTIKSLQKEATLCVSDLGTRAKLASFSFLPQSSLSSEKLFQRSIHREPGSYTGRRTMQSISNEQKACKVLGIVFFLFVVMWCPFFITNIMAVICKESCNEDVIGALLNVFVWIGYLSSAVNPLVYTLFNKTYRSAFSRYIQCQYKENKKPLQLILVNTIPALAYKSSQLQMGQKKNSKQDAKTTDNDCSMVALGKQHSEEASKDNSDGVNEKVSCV
Procedure: as §2

h5-HT4 = target: T10, h5-HT4 (Homo sapiens, UniProt Q13639); assay: Radioligand binding, human cloned h5-HT4; details: agonist radioligand, n = 2, read-out: Affinity, Mean
T10 construct: expressed in transfected cells
Procedure: as §2

h5-HT1E = target: T11, h5-HT1E (Homo sapiens, UniProt P28566); assay: Radioligand binding, human cloned h5-HT1E; details: agonist radioligand, read-out: Affinity, Mean
T11 construct: expressed in transfected cells
T11 sequence (P28566 whole entry): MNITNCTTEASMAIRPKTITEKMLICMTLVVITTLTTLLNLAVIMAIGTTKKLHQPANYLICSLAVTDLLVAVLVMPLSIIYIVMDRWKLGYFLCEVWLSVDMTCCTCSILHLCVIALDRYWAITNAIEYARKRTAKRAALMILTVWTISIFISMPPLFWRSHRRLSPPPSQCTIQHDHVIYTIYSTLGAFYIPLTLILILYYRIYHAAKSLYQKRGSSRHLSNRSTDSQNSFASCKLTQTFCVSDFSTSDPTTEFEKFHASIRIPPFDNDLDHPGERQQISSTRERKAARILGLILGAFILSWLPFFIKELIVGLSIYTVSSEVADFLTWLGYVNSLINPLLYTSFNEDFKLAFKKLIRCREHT
Procedure: as §2

h5-HT1A = target: T12, h5-HT1A (Homo sapiens, UniProt P08908); assay: Radioligand binding, human cloned h5-HT1A; details: agonist radioligand, read-out: Affinity, Mean
T12 construct: expressed in transfected cells
T12 sequence (P08908 whole entry): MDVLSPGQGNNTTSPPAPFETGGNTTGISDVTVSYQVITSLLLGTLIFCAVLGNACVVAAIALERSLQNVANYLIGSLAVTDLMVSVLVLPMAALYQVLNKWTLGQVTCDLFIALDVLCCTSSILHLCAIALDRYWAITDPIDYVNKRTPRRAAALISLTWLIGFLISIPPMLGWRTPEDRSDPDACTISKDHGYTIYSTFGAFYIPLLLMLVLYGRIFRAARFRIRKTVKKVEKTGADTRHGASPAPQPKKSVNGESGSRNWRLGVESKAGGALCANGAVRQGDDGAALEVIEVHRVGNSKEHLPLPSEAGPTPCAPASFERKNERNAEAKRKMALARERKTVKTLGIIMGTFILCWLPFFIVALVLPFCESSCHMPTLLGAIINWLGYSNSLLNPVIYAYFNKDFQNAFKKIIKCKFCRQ
Procedure: as §2

h5-HT6 = target: T13, h5-HT6 (Homo sapiens, UniProt P50406); assay: Radioligand binding, human cloned h5-HT6; details: agonist radioligand, read-out: Affinity, Mean
T13 construct: expressed in transfected cells
T13 sequence (P50406 whole entry): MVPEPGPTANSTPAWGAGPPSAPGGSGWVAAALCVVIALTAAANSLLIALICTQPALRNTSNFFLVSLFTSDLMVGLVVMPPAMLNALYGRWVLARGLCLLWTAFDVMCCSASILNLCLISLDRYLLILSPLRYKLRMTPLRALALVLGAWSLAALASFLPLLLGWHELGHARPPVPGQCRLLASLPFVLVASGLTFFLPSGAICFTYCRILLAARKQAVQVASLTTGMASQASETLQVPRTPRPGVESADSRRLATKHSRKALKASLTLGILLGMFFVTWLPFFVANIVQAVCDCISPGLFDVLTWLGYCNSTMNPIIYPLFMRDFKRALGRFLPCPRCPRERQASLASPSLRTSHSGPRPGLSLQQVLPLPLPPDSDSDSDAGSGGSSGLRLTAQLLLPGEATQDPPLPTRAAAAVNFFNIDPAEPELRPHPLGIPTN
Procedure: as §2

[4] = 10 mg/kg, 5 days of consecutive dosing

Question: With `C[C@H]1CN(c2ccc(C(F)(F)F)c3ccoc23)CCN1` [CPD 1, (3S)-3-methyl-1-[4-(trifluoromethyl)-7-benzofuranyl]-piperazine] as the molecule, how does the inhibition at 10 µM (M1) read?
Answer: 56%

Question: And the “% Inhibition” value (α2)?
Answer: 70%

Question: And the inhibition at 10 µM (D1)?
Answer: 94%

Question: What about the inhibition at 10 µM (D2s) of the same molecule?
Answer: 61%

Question: And the inhibition at 10 µM (NE transporter)?
Answer: 74%

Question: And the “% Inhibition” value (σ)?
Answer: 100%

Question: And the inhibition at 10 µM (H1)?
Answer: 93%

Question: What about the “% Inhibition” value (Na+ Channel) of the same molecule?
Answer: 101%

Question: What about the inhibition at 10 µM (D4.4) of the same molecule?
Answer: 105%

Question: And the “Reduction of deprivation-induced drinking” value (Male, Wistar rats)?
Answer: 50%

Question: And the “Effect on marble-burying compared to vehicle over five consecutive days” value (Male, NIH Swiss mice [1]; [4])?
Answer: significantly decreased

Question: And the “Tolerance to suppressant effect on marble-burying with repeated dosing” value (Male, NIH Swiss mice [1]; [4])?
Answer: did not produce tolerance

Question: What about the “Marble-burying, minimal effective dose” value (Male, NIH Swiss mice [1]; 12/dose group) of the same molecule?
Answer: 10 milligrams per kilogram

Question: What about the Ki (h5-HT1B) of the same molecule?
Answer: 1110 nM

Question: And the “Nestlet-shredding, minimal effective dose” value (Male, NIH Swiss mice [2])?
Answer: 3 milligrams per kilogram

Question: And the Ki (h5-HT1D)?
Answer: 296 nM

Question: What about the “Rotarod falls and failures” value (Male, NIH Swiss mice [3]; after 5 days of dosing, 12 mice) of the same molecule?
Answer: neither falls nor failures

Question: And the “Rotarod failures (mice failing / tested)” value (Male, NIH Swiss mice [3]; day 1)?
Answer: 0/12

Question: And the “Rotarod falls (mice falling / tested)” value (Male, NIH Swiss mice [3]; day 1)?
Answer: 2/12

Question: What about the Ki (h5-HT2A; agonist radioligand, h5-HT2A, read-out: Affinity, Mean) of the same molecule?
Answer: 47.2 nM

Question: And the “selectivity for h5-HT2C over h5-HT2A receptors” value (h5-HT2A; binding affinities)?
Answer: 22 fold

Question: And the Ki (h5-HT4)?
Answer: 977 nM

Question: What about the Ki (h5-HT1E) of the same molecule?
Answer: 1040 nM

Question: And the Ki (h5-HT1A)?
Answer: 205 nM

Question: What about the Ki (h5-HT6) of the same molecule?
Answer: 212 nM
